Measurements published in ChEMBL document CHEMBL2417533, “Apratoxin H and apratoxin A sulfoxide from the Red Sea cyanobacterium Moorea producens” (J Nat Prod, 2013).

Test system: NCI-H460
Experiment: Cytotoxicity against human NCI-H460 cells after 48 hrs by MTT assay
Type: functional, cell-based
Details: NCI-H460, 48 h

SMILES | IC50 [nM]
CC[C@H](C)[C@H]1C(=O)N2CCC[C@H]2C(=O)O[C@H](C(C)(C)C)C[C@@H](C)C[C@H](O)[C@H](C)C2=N[C@@H](/C=C(\C)C(=O)N[C@@H](Cc3ccc(OC)cc3)C(=O)N(C)[C@@H](C)C(=O)N1C)CS2 [APRATOXIN A] | 2.5
CC[C@H](C)[C@H]1C(=O)N2CCC[C@H]2C(=O)O[C@H](C(C)(C)C)C[C@@H](C)C[C@H](O)[C@H](C)C2=N[C@@H](/C=C(\C)C(=O)N[C@@H](Cc3ccc(OC)cc3)C(=O)N(C)[C@@H](C)C(=O)N1C)C[S+]2[O-] (stereo partly drawn) | 89.9
CC[C@H](C)[C@H]1C(=O)N2CCCC[C@H]2C(=O)O[C@H](C(C)(C)C)C[C@@H](C)C[C@H](O)[C@H](C)C2=N[C@@H](/C=C(\C)C(=O)N[C@@H](Cc3ccc(OC)cc3)C(=O)N(C)[C@@H](C)C(=O)N1C)CS2 | 3.4
